From patent publication US20260364027A1, “ENHANCER OF CARDIOLIPIN MOLECULAR SPECIES AS MITOCHONDRIAL COMPONENT” (WATANABE OYSTER LABORATORY, CO., LTD., priority 2022, published 2026)

What was measured:
[1] = tested on: antioxidant gene groups (such as HO-1 and NQO1); conditions: background, to date; cited from earlier work
PNPLA8 = assay: qPCR expression of CL remodeling/degradation-related gene PNPLA8 in HK-2 cells under oxidative stress; assay type: cell-based, human; conditions: oxidative stress (100 μM BSO) + DHMBA 250 or 500 μM, 24 h, HK-2, β-actin corrected, control = 1
Description: (§1) FIG. 6 is an explanatory drawing for describing changes in the expression levels of genes related to CL remodeling and degradation of DHMBA under oxidative stress conditions. HK-2 cells were cultured with 100 μM BSO and 250 or 500 μM DHMBA, and then the expression levels of genes related to […] were measured by qPCR. Mean±SD (n=4).
(§2) Therefore, in the present invention, the analysis of the expression levels of genes related to cardiolipin biosynthesis, remodeling, and degradation in response to oxidative stress stimulation was verified.
(§3) HK-2 cells were seeded in a 6-well plate at a density of 5.0×10^4 cells/well and cultured for 24 hours.
(§4) Next, under the same stimulus conditions as described above, 2 mL thereof was added to each well. […] The concentration of the purified RNA was quantified by Nanodrop (Invitrogen). […]
(§5) The gene expression levels were measured according to a protocol for THUNDERBIRD (registered trademark) SYBR (registered trademark) qPCR Mix (TOYOBO). Measurements were performed using a CFX Connect™ real-time PCR analysis system (BioRad), and analyzed using a 2^−(ΔΔCT) method.
(§6) The gene expression level of the control group was set at 1 for comparison. The figures are expressed as mean±SD (n=4 for each group). […]
(§7) The data obtained were expressed as mean±standard deviation (SD), and statistical analysis was performed using JMP Pro 16 (SAS Institute Inc.). […]

HADHB = assay: qPCR expression of CL remodeling/degradation-related gene HADHB in HK-2 cells under oxidative stress; assay type: cell-based, human; conditions: oxidative stress (100 μM BSO) + DHMBA 250 or 500 μM, 24 h, HK-2, β-actin corrected, control = 1
Description: as §1, §2, §3, §4, §5, §6, §7

[2] = tested on: human renal proximal tubule cells (HK-2); assay: Cardiolipin measurement by LC-MS/MS in HK-2 cells under oxidative stress stimulation (molecular species, total content, acyl groups); assay type: cell-based; conditions: oxidative stress (100 μM BSO) + DHMBA 250 or 500 μM
Description: FIG. 2 is an explanatory drawing for describing increase effects of DHMBA on CL molecular species under oxidative stress conditions. HK-2 cells were cultured with 100 μM BSO and 250 or 500 μM DHMBA, and then recovered and CL was measured using LC-MS/MS. Mean±SD (n=4).
FIG. 3 is an explanatory drawing for describing increase effects of DHMBA on total CL content under oxidative stress conditions. HK-2 cells were cultured with 100 μM BSO and 250 or 500 μM DHMBA, and then recovered and CL was measured using LC-MS/MS. Mean±SD (n=4).
FIG. 4 is an explanatory drawing for describing CL acyl group modification due to addition of DHMBA under oxidative stress conditions. HK-2 cells were cultured with 100 μM BSO and 250 or 500 μM DHMBA, and then recovered and CL was measured using LC-MS/MS. Mean±SD (n=4).
Human renal proximal tubule cells (HK-2) were subcultured in Dulbecco's Modified Eagle's Medium (DMEM, Nacalai Tesque) containing 10% fetal bovine serum and 1% penicillin-streptomycin at 37 °C in a 5% CO2 incubator. The following experiments were conducted using the oxidative stress inducer to confirm the cardiolipin increase effect of DHMBA on the oxidative stress.
HK-2 cells were seeded in a 6-well plate at a density of 1.0×10^5 cells/well and cultured for 24 hours. The cells were then divided into four groups with different stimulus conditions, and 2 mL thereof was added to each well.
The above-described four groups with the different stimulus conditions are as follows.
Control group (culture medium); oxidative stress group (final concentration 100 μM Oxidative Stress); oxidative stress+DHMBA 250 group (final concentration 100 μM Oxidative Stress+final concentration 250 μM DHMBA); and oxidative stress+DHMBA 500 group (final concentration 100 μM Oxidative Stress+final concentration 500 μM DHMBA).
After 24 hours, the cells were washed twice with phosphate-buffered saline (hereinafter referred to as PBS), and then 1 mL of PBS was added to each well and the cells were recovered using a scraper. In this cell suspension, 100 μL was used for protein quantification by a bicinchoninic acid (BCA) method. The protein concentration was used for correction of the cardiolipin concentration. The remaining cell suspension was centrifuged at 1,200 rpm for 5 minutes, the supernatant was removed, and then the precipitated cells were stored at −80 °C.
For the cardiolipin measurement, the total intracellular lipids were extracted in the same way as in the previous reports (Chen Z, et al. Metabolomics, 16: 115, 2020). […]
as §7

Keap1-Nrf2 pathway = conditions: background, to date; cited from earlier work
CDS2 = assay: qPCR expression of CL biosynthesis-related gene CDS2 in HK-2 cells under oxidative stress; assay type: cell-based, human; conditions: oxidative stress (100 μM BSO) + DHMBA 250 or 500 μM, 24 h, HK-2, β-actin corrected, control = 1
Description: FIG. 5 is an explanatory drawing for describing changes in expression level of CL biosynthesis-related genes of DHMBA under oxidative stress conditions. HK-2 cells were cultured with 100 μM BSO and 250 or 500 μM DHMBA, and then the expression levels of CL biosynthesis-related genes were measured by qPCR. Mean±SD (n=4).
as §2, §3, §4, §5, §6, §7

mitochondria = conditions: under oxidative stress conditions; results so far; cited from earlier work
[3] = background, to date; cited from earlier work
[4] = background; compared with existing antioxidants; cited from earlier work

## COc1c(O)cc(CO)cc1O [DHMBA, 3,5-dihydroxy-4-methoxy benzyl alcohol]
[1]
  Induction of the expression of antioxidant gene groups (such as HO-1 and NQO1): confirmed
PNPLA8
  PNPLA8 gene expression level: decreased to the same level as the control group
HADHB
  HADHB gene expression level: increased
[2]; 24 h, HK-2, n=4, vs control group
  Change in cardiolipin molecular species: almost all the cardiolipin molecular species increased significantly
[2]; HK-2, n=4
  Change in saturated fatty acid chain FA16:0 of cardiolipin: decreased
  Change in unsaturated fatty acid chain FA18:1 of cardiolipin: increased
  Change in unsaturated fatty acid chain FA18:2 of cardiolipin: increased
Keap1-Nrf2 pathway
  Activation of the Keap1-Nrf2 pathway: confirmed
CDS2
  CDS2 gene expression level: decreased to the same level as the control group
mitochondria
  Protective effect on mitochondria: protective effect on mitochondria under oxidative stress conditions
[3]
  Radical scavenging ability: confirmed
[4]
  Cytotoxicity: lower cytotoxicity than existing antioxidants
